# Source: paper PMC9570995, “Design, Synthesis, and Biological Evaluation of Novel Dihydropyridine and Pyridine Analogs as Potent Human Tissue Nonspecific Alkaline Phosphatase Inhibitors with Anticancer Activity: ROS and DNA Damage-Induced Apoptosis” (Molecules, 2022)
# Like-named read-outs stand apart in the source and are kept apart here.
# What was measured:
# [1] = tested on: Herring sperm DNA; assay: Fluorescence emission titration with DNA; format: binding; conditions: compound 10 µM, DMF/H2O (1:9, v/v)
# Method: The fluorescence emission studies of compound 4d (10 µM) were accomplished in DMF/H2O (1:9, v/v) before and after the continual addition of DNA (0–50 µg/mL) to probe out the compound-DNA interaction. […] As evident in Figure 8, the fluorescence emission of compound 4d was attenuated by ~55% (calculated through I0/I) upon the maximum addition of 50 µg/mL of DNA. The substantial fluorescence quenching behavior of 4d upon the addition of DNA is perhaps attributed to the efficient binding of the compound to the minor groove of DNA [68]. […] Next, the excellent binding efficiency of compound 4d with DNA was well elucidated through the Stern–Volmer (SV) plot, which was produced between the increased fluorescence quenching efficiency and increasing concentration of DNA solution. […]
# Reagent grade solvents were used for purification purposes. Silica gel with 70–230 mesh size and pure solvents were used for the column chromatography. ^1H, ^13C, and DEPT-135 NMR spectra were recorded on a 400 MHz spectrometer using DMSO as the solvent and TMS as the internal standard. The chemical shifts, multiplicity, and coupling constants were calculated from data obtained through the FID file. […] The IC50 and percent inhibition were calculated by using GraphPad software. […] The optical density was measured through a microplate reader at 570 nm. […]
# [2] = target: T1, human tissue nonspecific alkaline phosphatase (h-TNAP) (Homo sapiens, UniProt P05186); assay: Alkaline phosphatase inhibition assay (p-NPP substrate); format: biochemical
# T1 sequence (P05186 18-524): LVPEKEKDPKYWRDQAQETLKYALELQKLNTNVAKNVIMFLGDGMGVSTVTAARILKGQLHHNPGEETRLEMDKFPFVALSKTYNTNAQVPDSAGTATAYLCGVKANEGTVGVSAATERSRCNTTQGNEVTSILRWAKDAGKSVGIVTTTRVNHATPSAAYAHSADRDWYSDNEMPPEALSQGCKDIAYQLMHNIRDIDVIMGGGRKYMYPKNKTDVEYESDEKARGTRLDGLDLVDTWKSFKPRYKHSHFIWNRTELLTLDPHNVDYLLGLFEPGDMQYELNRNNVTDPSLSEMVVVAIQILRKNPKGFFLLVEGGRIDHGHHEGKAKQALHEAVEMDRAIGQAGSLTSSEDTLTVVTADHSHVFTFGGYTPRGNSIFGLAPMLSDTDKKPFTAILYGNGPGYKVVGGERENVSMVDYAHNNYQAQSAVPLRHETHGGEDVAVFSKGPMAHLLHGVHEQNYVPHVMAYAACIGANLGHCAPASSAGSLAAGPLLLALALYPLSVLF
# Method: The newly synthesized compounds were tested against human tissue nonspecific alkaline phosphatase (h-TNAP). The compounds were initially tested against the h-TNAP enzymes at 1 mM concentration. The assay buffer (pH 9.5) constituted of 50% glycerol, followed by tris-hydrochloride (50.0 mM), MgCl2 (5.0 mM), and ZnCl2 (0.1 mM) in the solution. The enzyme substrate p-nitrophenyl phosphate (p-NPP) and all the required test compounds were diluted to the required concentration by a dilution buffer method. In a 96-well plate, the assay was started by adding 70 µL of assay buffer followed by 10.0 µL of the test compound (from 1 mM), 10.0 µL of the enzyme (0.5 µL/mL) and then subsequently incubating at 37 °C for 10 min. The reaction was initiated with the addition of 10.0 µL of substrate (5.0 mM p-NPP) into each well and incubated for an additional 30 min.
# Percent inhibition was calculated by the formula:% Inhibition = [100 − (abs of test comp/abs of control) × 100]
structure (smiles),measurement,setting,value
"N#CC1=C(N)N(Cc2ccccc2)C(N)=C(C#N)C1c1ccc2ccccc2c1 [Compound 4d, 2,6-Diamino-1-benzyl-4-(naphthalen-2-yl)-1,4-dihydropyridine-3,5-dicarbonitrile]",Stern–Volmer constant (Ksv),[1]; DNA 0–50 µg/mL,34100 M⁻¹
same,attenuation of fluorescence emission,"[1]; 50 µg/mL DNA, emission 410 nm",~ 55%
same,IC50,"[2]; Table 2, unit given in Table 1, read-out: Alkaline Phosphatase (h-TNAP) IC50",1320 ± 260 nM
same,fold more potent than levamisole,[2]; h-TNAP IC50 compared with levamisole,about seventeen-fold
same,IC50,"[2]; h-TNAP, assay buffer pH 9.5, Table 1 and text, read-out: IC50 + SEM",1320 ± 260 nM
